Test results taken from patent US20090281114A1, “INDOLYLALKYL DERIVATIVES OF PYRIMIDINYLPIPERAZINE AND METABOLITES THEREOF FOR TREATMENT OF ANXIETY, DEPRESSION, AND SEXUAL DYSFUNCTION” (Fabre-Kramer Pharmaceuticals, Inc., priority 2008, published 2009).
Where a name gives a salt, the structure may show the parent alone.

Biological target: 5-HT1D binding site
Assay: 5-HT1D binding site affinity (tritiated serotonin; method of Heuring and Peroutka with minor modifications)
Details: in vitro
Experimental: Determination of 5-HT1D binding properties was accomplished employing methodology such as that described by Heuring and Peroutka, J. Neurosci., 7(3), 1987, 894-903; with only minor modifications. In vitro IC50 (nM) test values were determined for the compounds of this invention employing tritiated serotonin.

Question: For `CCOc1cncnc1N1CCN(CCCc2c[nH]c3ccccc23)CC1` [Example 52, 4-(5-Ethoxy-4-pyrimidinyl)-1-[3-(1H-indol-3-yl)propyl]piperazine hydrochloride hydrate], which IC50 is on record?
Answer: Its IC50 is 2 nM.

Question: Which IC50 does the source give for `COc1cncnc1N1CCN(CCC(C)c2c[nH]c3ccccc23)CC1` (stereo not shown) [Example 53, 1-[3-(1H-indol-3-yl)butyl]-4-(5-methoxy-4-pyrimidinyl)piperazine] here?
Answer: The IC50 was 5 nM.

Question: For `CCC(CCc1c[nH]c2ccccc12)N1CCN(c2ncncc2OC)CC1` (stereo not shown) [Example 54, 3-[3-[4-(5-Methoxy-4-pyrimidinyl)-1-piperazinyl]pentyl]indole], which IC50 is on record?
Answer: Its IC50 is 20.5 nM.

Question: With `COc1cncnc1N1CCN(CCCc2c[nH]c3ccc(O)cc23)CC1` [Example 55, 1-[3-(5-Hydroxy-1H-indol-3-yl)propyl]-4-(5-methoxy-4-pyrimidinyl)piperazine] as the molecule, how does the IC50 read?
Answer: Its IC50 is 0.8 nM.

Question: For `COc1cncnc1N1CCN(CCCc2c[nH]c3ccc(F)cc23)CC1` [Example 60, 3-(3-(4-(5-methoxy-4-pyrimidinyl)-1-piperazinyl)propyl)-5-fluoro-1H-indole hydrochloride], which IC50 is on record?
Answer: The IC50 was 3 nM.

Question: For `COc1cncnc1N1CCN(CCCc2c[nH]c3ccccc23)CC1C` (stereo not shown) [Example 62], which IC50 is on record?
Answer: Its IC50 is 4.2 nM.

Question: For `COc1cncnc1N1CCN(CCCc2c[nH]c3ccc(NS(C)(=O)=O)cc23)CC1` [Example 63], which IC50 is on record?
Answer: The IC50 was 5.2 nM.

Question: For `COc1cncnc1N1CCN(CCCc2c[nH]c3ccc(N(C)S(C)(=O)=O)cc23)CC1` [Example 65], which IC50 is on record?
Answer: Its IC50 is 4.9 nM.

Question: With `CCS(=O)(=O)Nc1ccc2[nH]cc(CCCN3CCN(c4ncncc4OC)CC3)c2c1` [Example 67] as the molecule, how does the IC50 read?
Answer: The IC50 was 13.7 nM.

Question: With `CCS(=O)(=O)N(C)c1ccc2[nH]cc(CCCN3CCN(c4ncncc4OC)CC3)c2c1` [Example 68] as the molecule, how does the IC50 read?
Answer: The IC50 was 12.9 nM.

Question: With `CCS(=O)(=O)N(C)c1ccc2[nH]cc(CCCN3CCN(c4ncncc4OC)C(C)C3)c2c1` (stereo not shown) [Example 69] as the molecule, how does the IC50 read?
Answer: The IC50 was 19.1 nM.

Question: For `CCS(=O)(=O)Nc1ccc2[nH]cc(CCCN3CCN(c4ncncc4OC)C(C)C3)c2c1` (stereo not shown) [Example 70, 1-[3-(5-Ethanesulfonylamino-1H-indol-3-yl)propyl]-4-(5-methoxy-4-pyrimidinyl)-3-methylpiperazine], which IC50 is on record?
Answer: The IC50 was 17.1 nM.

Question: For `CCOc1ccc2[nH]cc(CCCN3CCN(c4ncncc4OC)CC3)c2c1` [Example 71], which IC50 is on record?
Answer: The IC50 was 2.2 nM.

Question: With `COc1cncnc1N1CCN(CCCc2c[nH]c3ccc(OCc4ccccc4)cc23)CC1` [Example 72] as the molecule, how does the IC50 read?
Answer: The IC50 was 14.3 nM.

Question: For `COc1ccc2[nH]cc(CCCN3CCN(c4ncncc4OC)CC3)c2c1` [Example 73], which IC50 is on record?
Answer: The IC50 was 1.1 nM.

Question: Which IC50 does the source give for `COc1cncnc1N1CCN(CCCc2c[nH]c3cc(F)c(F)cc23)CC1` [Example 74] here?
Answer: The IC50 was 29 nM.

Question: Which IC50 does the source give for `COc1cncnc1N1CCN(CCCc2c[nH]c3c(F)ccc(F)c23)CC1` [Example 75] here?
Answer: The IC50 was 5.1 nM.

Question: With `COc1cncnc1N1CCN(CCCc2c[nH]c3c(F)cc(F)cc23)CC1` [Example 76] as the molecule, how does the IC50 read?
Answer: The IC50 was 8.1 nM.

Test system: not given
Assay: not given
Details: not given

Question: With `COc1cncnc1N1CCN(CCCc2c[nH]c3ccc(C(C)=O)cc23)CC1.Cl` as the molecule, how does the melting point read?
Answer: Its melting point is 215 to 217 °C (dec.).

Question: Which melting point does the source give for `CCCCNC(=O)c1ccc2[nH]cc(CCCN3CCN(c4ncncc4OC)CC3)c2c1.Cl` here?
Answer: Its melting point is 180 to 185 °C.

Question: For `COc1cncnc1N1CCN(CCCc2c[nH]c3ccc(N4CCCC4=O)cc23)CC1.O=C(O)C(=O)O`, which melting point is on record?
Answer: The melting point was 100 to 101 °C.

Question: With `CCS(=O)(=O)Nc1ccc2[nH]cc(CCCN3CCN(c4ncncc4OC)C(C)C3)c2c1` (stereo not shown) (as salt: HCl) (hydrate or solvate) [Example 70, 1-[3-(5-Ethanesulfonylamino-1H-indol-3-yl)propyl]-4-(5-methoxy-4-pyrimidinyl)-3-methylpiperazine] as the molecule, how does the melting point read?
Answer: Its melting point is 212 to 214 °C.

Question: Which melting point does the source give for `COc1cncnc1N1CCN(CCCc2c[nH]c3ccc(OCc4ccccc4)cc23)CC1` (as salt: HCl) (hydrate or solvate) [Example 72] here?
Answer: The melting point was 180 °C (dec.).

Question: Which melting point does the source give for `COc1cncnc1N1CCN(CCCc2c[nH]c3ccccc23)CC1C` (stereo not shown) (as salt: HCl) [Example 62] here?
Answer: The melting point was 185 °C (dec.).

Question: Which melting point does the source give for `COc1cncnc1N1CCN(CCCc2c[nH]c3ccc(NS(C)(=O)=O)cc23)CC1` (as salt: HCl) [Example 63] here?
Answer: Its melting point is 150 to 152 °C.

Question: For `COc1cncnc1N1CCN(CCCc2c[nH]c3ccc(N(C)S(C)(=O)=O)cc23)CC1` (as salt: HCl) [Example 65], which melting point is on record?
Answer: Its melting point is 227 to 230 °C.

Question: For `CCS(=O)(=O)Nc1ccc2[nH]cc(CCCN3CCN(c4ncncc4OC)CC3)c2c1` (as salt: HCl) [Example 67], which melting point is on record?
Answer: Its melting point is 140 to 145 °C.

Question: With `CCS(=O)(=O)N(C)c1ccc2[nH]cc(CCCN3CCN(c4ncncc4OC)CC3)c2c1` (as salt: HCl) [Example 68] as the molecule, how does the melting point read?
Answer: The melting point was 223 to 225 °C.

Question: For `CCS(=O)(=O)N(C)c1ccc2[nH]cc(CCCN3CCN(c4ncncc4OC)C(C)C3)c2c1` (stereo not shown) (as salt: HCl) [Example 69], which melting point is on record?
Answer: Its melting point is 205 to 207 °C.

Question: Which melting point does the source give for `COc1ccc2[nH]cc(CCCN3CCN(c4ncncc4OC)CC3)c2c1` (as salt: HCl) [Example 73] here?
Answer: The melting point was 130 to 150 °C (dec.).

Question: With `COc1cncnc1N1CCN(CCCc2c[nH]c3c(F)cc(F)cc23)CC1` (as salt: HCl) [Example 76] as the molecule, how does the melting point read?
Answer: Its melting point is > 250 °C (dec.).

Question: For `COc1cncnc1N1CCN(CCCc2c[nH]c3ccc(CS(=O)(=O)N(C)C)cc23)CC1` (as salt: hydrochloride) (hydrate or solvate) [Example 30, 1-[3-[5-[[(Dimethylamino)sulfonyl]methyl]-1H-indol-3-yl]propyl]-4-(5-methoxy-4-pyrimidinyl)piperazine], which melting point is on record?
Answer: Its melting point is 210 °C (dec.).

Question: For `COc1cncnc1N1CCN(CCCc2c[nH]c3ccc(CNS(C)(=O)=O)cc23)CC1` (as salt: hydrochloride) (hydrate or solvate) [Example 31, 4-(5-Methoxy-4-pyrimidinyl)-1-[[5-[[(methylsulfonyl)amino]methyl]-1H-indol-3-yl]propyl]piperazine], which melting point is on record?
Answer: Its melting point is 204 to 206 °C.

Question: With `COc1cncnc1N1CCN(CCCc2c[nH]c3ccc(OCC#N)cc23)CC1` (as salt: hydrochloride) [Example 45, 3-[3-[4-(5-Methoxy-4-pyrimidinyl)-1-piperazinyl]propyl]-5-(cyanomethyl)oxyindole] as the molecule, how does the melting point read?
Answer: The melting point was 198 to 200 °C (dec.).

Question: For `COc1cncnc1N1CCN(CCC(C)c2c[nH]c3ccccc23)CC1` (stereo not shown) (as salt: hydrochloride) [Example 53, 1-[3-(1H-indol-3-yl)butyl]-4-(5-methoxy-4-pyrimidinyl)piperazine], which melting point is on record?
Answer: The melting point was 169 to 172 °C (dec.).

Question: With `COc1cncnc1N1CCN(CCCc2c[nH]c3ccc(O)cc23)CC1` (as salt: hydrochloride) [Example 55, 1-[3-(5-Hydroxy-1H-indol-3-yl)propyl]-4-(5-methoxy-4-pyrimidinyl)piperazine] as the molecule, how does the melting point read?
Answer: The melting point was 215 °C.

Question: For `COc1cncnc1N1CCN(CCCc2c[nH]c3ccc(F)cc23)CC1` (as salt: hydrochloride) [Example 60, 3-(3-(4-(5-methoxy-4-pyrimidinyl)-1-piperazinyl)propyl)-5-fluoro-1H-indole hydrochloride], which melting point is on record?
Answer: Its melting point is 119 to 122 °C.

Question: For `COc1cncnc1N1CCN(CCCc2c[nH]c3ccc(N(C)S(=O)(=O)C(F)(F)F)cc23)CC1` (as salt: salt) [Example 26, 1-[3-[5-[Methyl(trifluoromethanesulfonyl)amino]-1H-indol-3-yl]propyl]-4-(5-methoxy-4-pyrimidinyl)piperazine], which melting point is on record?
Answer: The melting point was greater than 230 °C.

Question: With `COc1cncnc1N1CCN(CCCc2c[nH]c3ccc(N)cc23)CC1` (as salt: salt) [Example 43, 3-[3-[4-(5-Methoxy-4-pyrimidinyl)-1-piperazinyl]propyl]-5-aminoindole] as the molecule, how does the melting point read?
Answer: Its melting point is 192 °C (dec.).

Question: For `COc1cncnc1N1CCN(CCCc2c[nH]c3ccc(CCS(C)(=O)=O)cc23)CC1C` (stereo not shown) (as salt: salt) [Example 51, 4-(5-Methoxy-4-pyrimidinyl)-1-[3-[5-[2-(methylsulfonyl)ethyl]-1H-indol-3-yl]propyl]-3-methylpiperazine], which melting point is on record?
Answer: Its melting point is 220 to 223 °C.

Question: For `CCC(CCc1c[nH]c2ccccc12)N1CCN(c2ncncc2OC)CC1` (stereo not shown) (as salt: salt) [Example 54, 3-[3-[4-(5-Methoxy-4-pyrimidinyl)-1-piperazinyl]pentyl]indole], which melting point is on record?
Answer: The melting point was 145 °C (dec.).

Question: Which melting point does the source give for `COc1cncnc1N1CCN(CCCc2c[nH]c3ccc(CNC(C)=O)cc23)CC1` (hydrate or solvate) [Example 40, 1-[[5-[[(Acetyl)amino]methyl]-1H-indol-3-yl]propyl]-4-(5-methoxy-4-pyrimidinyl)piperazine] here?
Answer: Its melting point is 169 to 174 °C.

Question: Which melting point does the source give for `CCOc1cncnc1N1CCN(CCCc2c[nH]c3ccccc23)CC1.Cl.O` (hydrate or solvate) [Example 52, 4-(5-Ethoxy-4-pyrimidinyl)-1-[3-(1H-indol-3-yl)propyl]piperazine hydrochloride hydrate] here?
Answer: The melting point was greater than 230 °C.

Question: Which melting point does the source give for `CCS(=O)(=O)N(C)Cc1ccc2[nH]cc(CCCN3CCN(c4ncncc4OC)CC3)c2c1` [Example 38, 4-(5-Methoxy-4-pyrimidinyl)-1-[[5-[[methyl(ethylsulfonyl)amino]-methyl]-1H-indol-3-yl]propyl]piperazine] here?
Answer: Its melting point is 113 to 115 °C.

Question: For `CCS(=O)(=O)N(Cc1ccccc1)Cc1ccc2[nH]cc(CCCN3CCN(c4ncncc4OC)CC3)c2c1` [Example 39, 4-(5-Methoxy-4-pyrimidinyl)-1-[[5-[[phenylmethyl(ethylsulfonyl)amino]-methyl]-1H-indol-3-yl]propyl]piperazine], which melting point is on record?
Answer: Its melting point is 73 to 75 °C.

Question: Which melting point does the source give for `COc1cncnc1N1CCN(CCCc2c[nH]c3ccc(CCS(C)(=O)=O)cc23)CC1` [Example 50, 4-(5-Methoxy-4-pyrimidinyl)-1-[3-[5-[2-(methylsulfonyl)ethyl]-1H-indol-3-yl]propyl]piperazine] here?
Answer: Its melting point is 153 to 154 °C.

Question: For `CCOc1ccc2[nH]cc(CCCN3CCN(c4ncncc4OC)CC3)c2c1` [Example 71], which melting point is on record?
Answer: Its melting point is 112 to 114 °C.

Question: With `COc1cncnc1N1CCN(CCCc2c[nH]c3cc(F)c(F)cc23)CC1` [Example 74] as the molecule, how does the melting point read?
Answer: The melting point was 102 to 104 °C.

Question: For `COc1cncnc1N1CCN(CCCc2c[nH]c3c(F)ccc(F)c23)CC1` [Example 75], which melting point is on record?
Answer: Its melting point is 160 to 165 °C.
